The results in this text go back to patent US20080292721A1, “Bioactive acid agrichemical compositrions and use thereof” (priority 2007, published 2008).

The assay deals with E. amylovora 153N. As to the kind of experiment: Fire blight on crabapples. Format: in vivo. More on the design: Blossom Incidence / Shoot Incidence: unit not given here. The settings on record: for Blossom Incidence: mean of counts; for Canker Size / Shoot Incidence: Day 63. The protocol:
A study of the bioefficacy of the various agrichemical compositions, including bioactive acid solutions and blends thereof with an antibiotic agrichemical, were evaluated to assess their bioefficacy against fire blight on crabapples. The study was conducted on 5 year old Snow Drift crabapple trees, with each of the compositions being applied to ten trees in two-subplots of five trees, four different times: at 100% bloom-day 1, a second application was made on day 4, a third on day 11 and a final treatment on day 19. The trees were inoculated with E. amylovora […] at a concentration of 4×10^6 cells per milliliter on day 1, following drying of the treatment, with the inoculation being repeated on day 13. Evaluation for fire blight was completed on 100 blossoms for each of the subplots on day 12, day 19 and day 27. Additionally, the incidence of shoot infection and the length of […] evaluated on day 63. The test compositions were prepared by forming solutions of the bioactive agents. Two different dilutions of the MI2 bioactive were evaluated, the first employing 94.46 ml/gallon (25 ml/l) of water (5 ppm of each metal) and the second 188.9 ml/gallon (50 ml/l) of water (10 ppm of each metal). […] Finally, copper hydroxide was diluted at a rate of 1 lb/gallon (119.8 g/l). Each of the compositions and blends were spray applied at a rate of 50 gallons (189.3 l) pre acre. The results are presented as the mean of the counts.

In the case of `[Cu+2].[OH-].[OH-]` [copper hydroxide], the “Blossom Incidence” value (Day 12, rate 5 lbs/a (2.27 kg/a)) is 3.1; the “Blossom Incidence” value (Day 19, rate 5 lbs/a (2.27 kg/a)) was determined as 2.2; the “Blossom Incidence” value (Day 27, rate 5 lbs/a (2.27 kg/a)) is recorded as 9.0. The “Canker Size” value (rate 5 lbs/a (2.27 kg/a)) was found to be 0.0 cm. Also, the “Shoot Incidence” value (rate 5 lbs/a (2.27 kg/a)) came to 1.0.
On to `[H]/N=C(/N)N[C@H]1[C@H](O)[C@@H](O)[C@H](O[C@@H]2O[C@@H](C)[C@](O)(C=O)[C@H]2O[C@@H]2O[C@@H](CO)[C@H](O)[C@@H](O)[C@@H]2NC)[C@@H](N/C(N)=N\[H])[C@@H]1O` [streptomycin], for which the “Blossom Incidence” value (Day 12, rate 0.49 lb/a) was 1.8; the “Blossom Incidence” value (Day 19, rate 0.49 lb/a) amounted to 4.8; the “Blossom Incidence” value (Day 27, rate 0.49 lb/a) is given as 3.09. For the same molecule, the “Canker Size” value (rate 0.49 lb/a) is recorded as 0.0 cm. The “Shoot Incidence” value (rate 0.49 lb/a) is reported as 1.2.
